From patent publication US20080255206A1, “Rxr Agonists and Antagonists, Alone or in Combination with Ppar Ligands, in the Treatment of Metabolic and Cardiovascular Diseases” (priority 2005, published 2008)

What was measured:
[1] = test system: human skin inflammation induced by topical 9-cis RA; test: Therapeutic effect on 9-cis RA-induced human skin inflammation, clinical pilot trial; assay type: in vivo
Experimental: In the following pilot clinical trial on one healthy volunteer the compounds are applied epicutaneously. 9-cis RA being known for its skin inflammation potential is used in concentrations of 0.1%, 0.3% and 1%. Compound 15 (RXR antagonist) concentration is 1%. The compounds are solved in ethanol/propylene glycol (1:1). 9-cis RA is applied twice daily, 7 days a week, for two consecutive weeks. The site of application is an area of 3×3=9 cm^2 on the abdominal skin. The volume is 0.1 ml per administration. The treatment with compound 15, administered twice daily in a concentration of 1%, is started on day 15 when treatment with 9-cis RA is discontinued. This treatment lasts from day 15 to day 22. For a correct evaluation comparative areas with inflammation induced by 9-cis RA are treated with the vehicle, ethanol/propylene glycol, from day 15 to 22. The post-treatment period lasts until day 28.
The signs and symptoms of skin inflammation are recorded on a 0-4 scale, as described in example 21.
For evaluation of the anti-inflammatory effect of compound 15, the sum of the daily inflammation scores from day 15 to day 28 is determined, as well as the time to complete disappearance of skin inflammation from day 15 on.

[2] = test system: myeloperoxidase (MPO) activity; test: Acute inflammation of mouse ears, MPO activity; assay type: in vivo, C57BL/6 mice; conditions: 4 d
Experimental: (§1) […] mice of the C57BL/6 strain are used. Inflammation is induced on mouse ears with either AtRA, 9-cis RA or TPA by topical application. Inflammation is measured objectively by determination of the activity of myeloperoxidase (MPO) being directly correlated to the infiltration of polymorphonuclear white blood cells and by the determination of mRNA expression of c-jun, a protein implicated in the AP-1 transduction pathway according to known methods, see e.g. P. L. Stanley et al., Skin Pharmacol. 4, 262-271 (1991) (MPO assay), N. Basset-Sequin et al., J. Invest. Dermatol. 94, 418-422 (1990), F. J. Rauscher et al., Cell 52, 471-480 […], P. Sassone-Corn et al., Nature 326, 507-510 (1987), and M. Pfahl, Endocr. Rev. 14, 651-658, 1993, which are incorporated by reference regarding the experimental method.
In the “acute inflammation” test, mice are treated topically (epicutaneously), orally or intraperitoneally, daily for 4 days. In the “semi chronic inflammation” test, mice are treated topically according to the schedules given below. For each experiment, a group of at least 4 mice of both sexes are used in the defined condition, regarding placebo, vehicle control, compound, topical formulation, oral formulation, dosage and concentration. The topical vehicle consists of ethanol/PEG 400/water (3:1:1).
The anti-inflammatory effect of topical RXR antagonist compound 15 is tested by determination of myeloperoxidase activity in % of vehicle treated controls. For induction of inflammation 9-cis RA or TPA are applied topically to the skin, daily for 4 days. The RXR antagonist compound 15 (see Table 1) is administered topically one hour after the application of the inflammation inducing agent. The mice are sacrified 24 hours after the last treatment.

NMRI mice = test: 2 weeks toxicology study in NMRI mice; assay type: in vivo
Experimental: Oral administration of the RXR agonist compound 1 is tested by daily oral gavage in a 2 weeks toxicology study in NMRI mice. […] This signifies a favourable effect on the lipid profile, which is important in therapy of diabetes and lipid disorders.

normal mice = test: 2-weeks toxicity study in normal mice, intraperitoneal; conditions: daily i.p.
[3] = Pharmacokinetics, daily oral gavage for 14 days in mice; conditions: mouse, in vivo; for AUC / Cmax: oral
Experimental: Daily administration of compound 15 by oral gavage for 14 days in mice: Compound 15 is administered daily by oral gavage as a microsuspension in oil in doses of 30 to 400 mg/kg/day for 14 days in mice.

[4] = Pharmacokinetics, daily oral gavage for 4 weeks in rats; assay type: in vivo
Experimental: Daily administration of compound 15 by oral gavage for 4 weeks in rats: Compound 15 is administered daily by oral gavage as an oily suspension in doses of 50, 250, 500 and 750 mg/kg/day for 4 weeks in rats. Plasma samples are taken 2 hours post dosing on days 1, 22 and 26 and analysed by a gradient HPLC method with UV detection. […] With the 250 mg/kg/day dosage, plasma levels change from 4945 ng/ml on day 1 to 4190 ng/ml on day 22 and to 4530 ng/ml on day 26. Exposure of the rats to compound 15 results in a dose-proportional way in the doses between 50 and 250 mg/kg/day.

c-Jun mRNA expression = test: Semi chronic inflammation of mouse ears, c-Jun mRNA (northern blot); assay type: in vivo, C57BL/6 mice; conditions: TPA 0.005% + test compound 0.05%
Experimental: as §1
The anti-inflammatory effect of topical RXR antagonists is tested by determination of myeloperoxidase activity in % of vehicle controls. The effect of the RXR antagonist compound 15 is also compared with the well known anti-inflammatory effect of the two corticosteroids, clobetasol dipropionate and betamethasone propionate. For induction of inflammation, AtRA and TPA are applied topically to the skin and the administration of the test compounds, the RXR antagonist compound 15 and the two corticosteroids are given in the following order, according to the schedule, described in: Skin Pharmacol 1991; 4 (4): 262-271, Stanley P L. et.al.: RA or TPA is administered on days 0, 2, 4, 7 and 9, compound 15 or corticosteroids are administered twice daily on day 7, day 8 and day 9 and once on day 10 in the morning. The mice are sacrificed on day 10 in the afternoon.
In the same experiment, the expression of c-Jun mRNA is determined by northern blot and expressed in percent of the vehicle controls.

[5] = 9-cis RA 0.1% day 1-14, followed by vehicle day 15-22
[6] = 9-cis RA 0.3% day 1-14, followed by vehicle day 15-22
[7] = 9-cis RA 1% day 1-14, followed by vehicle day 15-22
[8] = 9-cis RA 0.1% day 1-14, followed by compound 15 1% day 15-22
[9] = 9-cis RA 0.3% day 1-14, followed by compound 15 1% day 15-22
[10] = 9-cis RA 1% day 1-14, followed by compound 15 1% day 15-22

CC1=C(/C=C/C(C)=C\C=C\C(C)=C\C(=O)O)C(C)(C)CCC1 [9-cis RA, 9-cis retinoic acid, reference compound]
Sum of daily inflammation scores from day 15 to disappearance of inflammation [1, 5]: 6.5
Time in days from day 15 to disappearance of inflammation [1, 5]: 8 days
Sum of daily inflammation scores from day 15 to disappearance of inflammation [1, 6]: 14
Time in days from day 15 to disappearance of inflammation [1, 6]: 13 days
Sum of daily inflammation scores from day 15 to disappearance of inflammation [1, 7]: 14.5
Time in days from day 15 to disappearance of inflammation [1, 7]: 9 days
MPO activity (% vehicle treated mice) ([2]; 9-cis RA 0.05% alone, topical): 647 ± 142 % vehicle treated mice

CC1=C(/C=C/C2=C(/C=C/C(C)=C/C(=O)O)CCCCC2)C(C)(C)CCC1 [Compound 1, (2E,4E)-3-methyl-5-[2-[(E)-2-(2,6,6-trimethyl-1-cyclohexen-1-yl)ethenyl]-1-cyclohepten-1-yl]-2,4-pentadienoic acid]
Lipid profile (triglycerides, HDL-, LDL-cholesterol) (NMRI mice; all treated groups): tendency to a decrease in triglycerides, an increase in HDL-cholesterol and a decrease in LDL-cholesterol
Signs or symptoms of the hypervitaminosis A syndrome (NMRI mice; all treated groups): no signs or symptoms of the hypervitaminosis A syndrome
Tolerability, oral (NMRI mice; daily oral gavage, 2 weeks, up to 400 mg/kg/day): very well tolerated
Tolerability, intraperitoneal (NMRI mice; intraperitoneally, 200 mg/kg/day): well tolerated
Body weight, intraperitoneal (NMRI mice; intraperitoneally, 400 mg/kg/day): retarded body weight increase

CCCCOc1c(\C(C)=C/C=C/C(C)=C/C(=O)O)cc(C(C)(C)C)cc1C(C)(C)C [Compound 15, (2E,4E,6Z)-7-[2-butoxy-3,5-bis(1,1-dimethylethyl)phenyl]-3-methyl-2,4,6-octatrienoic acid]
Signs or symptoms of hypervitaminosis A (normal mice): no signs or symptoms of hypervitaminosis A on skin, mucous membranes or bones with the exception of hair loss
Tolerability, intraperitoneal (normal mice; doses up to 400 mg/kg): well tolerated
AUC ([3]; 30 mg/kg): 13200 ng·h/mL
Cmax ([3]; 30 mg/kg): 4440 ng/mL
AUC ([3]; 100 mg/kg): 25700 ng·h/mL
Cmax ([3]; 100 mg/kg): 8920 ng/mL
Tmax ([3]; oral gavage 30 to 400 mg/kg/day, 14 days): 0.5 to 2 h
Sum of daily inflammation scores from day 15 to disappearance of inflammation [1, 8]: 2.5
Time in days from day 15 to disappearance of inflammation [1, 8]: 3 days
Sum of daily inflammation scores from day 15 to disappearance of inflammation [1, 9]: 5.5
Time in days from day 15 to disappearance of inflammation [1, 9]: 6 days
Sum of daily inflammation scores from day 15 to disappearance of inflammation [1, 10]: 11
Time in days from day 15 to disappearance of inflammation [1, 10]: 8 days
Plasma level 2 hours post dosing ([4]; 50 mg/kg/day, day 1): 2205 ng/mL
Plasma level 2 hours post dosing ([4]; 50 mg/kg/day, day 22): 2235 ng/mL
Plasma level 2 hours post dosing ([4]; 50 mg/kg/day, day 26): 2505 ng/mL
Plasma level 2 hours post dosing ([4]; 250 mg/kg/day, day 1): 4945 ng/mL
Plasma level 2 hours post dosing ([4]; 250 mg/kg/day, day 22): 4190 ng/mL
Plasma level 2 hours post dosing ([4]; 250 mg/kg/day, day 26): 4530 ng/mL
c-Jun mRNA expression (% of vehicle treated mice) (c-Jun mRNA expression): 88 % of vehicle treated mice
MPO activity (% vehicle treated mice) ([2]; 9-cis RA 0.05% + test compound 0.05% topical): 236 ± 92 % vehicle treated mice
MPO activity (% vehicle treated mice) ([2]; TPA 0.005% + test compound 0.05% topical): 163 ± 25 % vehicle treated mice
MPO activity (% vehicle treated mice) ([2]; TPA 0.005% + test compound 2.5% topical): 142 ± 18 % vehicle treated mice
